The source of these data is patent US20240316073A1, “CANNABIDIOLIC ACID ESTERS FOR TREATING PRADER-WILLI SYNDROME” (EPM (IP), Inc., priority 2021, published 2024).

For series [1] the following is noted: cited from earlier work.
Another series has as its system WT mice. The experiment in a line: Wild-type littermate controls with HFD diet-induced obesity, CBDA-ME treatment. It counts as in vivo. The source says: (§1) The experimental protocol used was approved by the Institutional Animal Care and Use Committee of the Hebrew University, Israel, which is an AAALAC International accredited institute. Male 6-week-old Magel2^null mice and their wild-type littermate controls were maintained under a 12-h light/dark cycle and fed ad libitum. To generate diet-induced obesity, the mice were fed either a high-fat diet (HFD) (60% of calories from fat, 20% from protein, and 20% from carbohydrates; Research Diet, D12492) or a standard laboratory diet (STD, 14% fat, 24% protein, 62% carbohydrates; NIH-31 rodent diet) for 14-16 weeks. Then, HFD-fed obese mice received vehicle (1% Tween80, 4% DMSO, 95% Saline) or CBDA-ME (20 or 40 mg/kg) daily for 28 days by intraperitoneal (ip) injections. Age-matched control mice on STD received vehicle daily.
(§2) Body weight was monitored daily. Total body fat and lean masses were determined by EchoMRI-100H™ (Echo Medical Systems LLC, Houston, TX, USA). At weeks 20-22, the mice were euthanized by a cervical dislocation under deep anesthesia. The brain, kidneys, liver, fat pads, pancreas and muscles were removed, and the liver and kidney were also weighed. The samples were either snap-frozen or fixed in buffered 4% formalin. Trunk blood was collected for determining the biochemical parameters.
(§3) Multi-parameter metabolic assessment—Metabolic profile of the mice was assessed by using the Promethion High-Definition Behavioral Phenotyping System (Sable Instruments, Inc., Las Vegas, NV, USA). Data acquisition and instrument control were performed using MetaScreen software version 2.2.18.0, and the obtained raw data were processed using ExpeData version 1.8.4 using an analysis script detailing all aspects of data transformation. Mice with free access to food and water (which were continuously measured) were subjected to a standard 12 h light/12 h dark cycle, which consisted of a 24 h acclimation period followed by 24 h of sampling. Respiratory gases were measured by using the GA-3 gas analyzer (Sable Systems, Inc., Las Vegas, NV, USA) using a pull-mode, negative-pressure system. Air flow was measured and controlled by FR-8 (Sable Systems, Inc., Las Vegas, NV, USA), with a set flow rate of 2000 mL/min. Water vapor was continuously measured and its dilution effect on O2 and CO2 was mathematically compensated. Effective body mass was calculated by ANCOVA. Fat oxidation (FO) and carbohydrate oxidation (CHO) were calculated as FO=1.69×VO2−1.69×VCO2 and CHO=4.57×VCO2−3.23×VO2 and expressed as g/d/kg^eff.Mass. […]
Glucose tolerance test (ipGTT) and insulin tolerance test (ipITT)-Mice that fasted overnight were injected with glucose (1.5 g/kg, ip), followed by a tail blood collection at 0, 15, 30, 45, 60, 90, and 120 minutes. Blood glucose levels were determined using the Contour glucometer (Bayer, Pittsburgh, PA). The following day, mice underwent fasting for 6 h before receiving insulin (0.75 U/kg, ip; Eli Lilly), and blood glucose levels were determined at the same intervals as above. […]
(§4) Statistical Methods—Results in multiple groups and time-dependent variables were compared by ANOVA followed by Tukey post-hoc test. Significance was set at P<0.05 using the following signs: *P<0.05 relative to STD-Veh; #P<0.05 relative to HFD-Veh; ^P<0.05 relative to HFD-20 mg/kg of CBDA-ME.
(§5) The metabolic profile of CBDA-ME was examined in mice with diet-and genetic-induced obesity (DIO, GIO). Male Magel2^null mice and their wild-type littermate controls fed a high-fat diet (HFD) for 14-16 weeks became obese and then started treatment with daily ip injections of vehicle, or CBDA-ME (20 mg/kg/d or 40 mg/kg/d) for 28 days. Age-and sex-matched mice on STD served as controls.

The subject of series [2] is rats. The note with it: compared with CBDA, 5-HT1A receptor-dependent; cited from earlier work.
A further series has as its system DIO mice. Put plainly: Serum biochemistry and hepatic lipid content in HFD-fed obese mice, genotype not distinguished (WT or PWS model). It counts as in vivo.
Excerpt: as §1
Blood biochemistry—Serum levels of cholesterol, triglycerides (TG), high-density lipoprotein (HDL), low-density lipoprotein (LDL), glucose, alanine aminotransferase (ALT), aspartate aminotransferase (AST), and alkaline phosphatase (ALP) were determined using the Cobas C-111 chemistry analyzer (Roche, Switzerland). Fasting blood glucose was measured using the Contour glucometer.
Hepatic lipid content—Liver tissues were extracted and their triglyceride and cholesterol contents were determined using the Cobas C-111 chemistry analyzer (Roche, Switzerland) or the EnzyChrom™ Triglyceride assay kit (BioAssay Systems, Hayward CA, USA).
Histopathology—First, 5 μm paraffin-embedded liver sections from 5 animals per group were stained with hematoxylin-eosin staining. Liver images were captured with a Zeiss AxioCam ICc5 color camera (Carl Zeiss AG, Jena, Germany) mounted on a Zeiss Axio Scope.A1 light microscope (Carl Zeiss AG, Jena, Germany) and taken from 10 random 40× fields of each animal.
as §4

The next series concerns rat models. As to conditions: oral ingestion, 1 mg/kg, two rat models; cited from earlier work.
In series [3] the test system is Magel2^null mice. The experiment in a line: Magel2-null mouse model of Prader-Willi Syndrome, HFD-induced obesity, CBDA-ME treatment. It counts as in vivo.
Excerpt: A Magel2-null mice model of Prader-Willi Syndrome was used to examine the effects of CBDA-ME treatment.
as §1, §2, §3, §4, §5

Series [4] has as its system Magel2^null mice. The experiment in a line: PWS preventive model: Magel2-null mice on standard diet treated for 18 weeks. It counts as in vivo. The note with it: STD diet, 20 mg/kg/day IP. The protocol: The aim of the second study was to evaluate whether EPM301 treatment has an impact on body weight gain and adiposity in a mouse model of PWS.
Male 6-week-old Magel2^null mice and their wild-type littermate controls were maintained under a 12-h light/dark cycle and fed ad libitum a standard laboratory diet (STD, 14% fat, 24% protein, 62% carbohydrates; NIH-31 rodent diet).
Magel2^null mice were either treated with EPM301 20 mg/kg/day or with vehicle (1% Tween80, 4% DMSO, 95% Saline). WT siblings were treated with vehicle. All treatments were given for 18 weeks by intraperitoneal (IP) injections.

Series [5] relates to rats. As to conditions: compared with CBDA, 5-HT1A receptor-dependent; cited from earlier work. The source holds these as a separate data set.
The mark [6] stands for this setting: HFD-fed obese, 20 or 40 mg/kg/d ip, 28 days.
Setting [7] is: 20 or 40 mg/kg ip, 28 days, more prominent at the higher dose.

Each structure is given as a SMILES string. “Also recorded” adds a separate entry of the source.

For the compound `C=C(C)[C@@H]1CCC(C)=C[C@H]1c1c(O)cc(CCCCC)c(C(=O)O)c1O` [CBDA, cannabidiolic acid], in series [1], the “stability (decarboxylation into CBD enhanced by heat)” value is “relative instability”.

For `C=C(C)C1CCC(C)=C[C@H]1c1c(O)cc(CCCCC)c(C(=O)OC)c1O` (some centres unmarked) [CBDA-ME, cannabidiolic acid methyl ester], in the series on WT mice (HFD), the “food intake and hyperphagia” value is “not observed”; the reduced ambulatory activity entry was “restored”. In addition, in the series on WT mice (setting [6]), the increased adiposity result is reported as “only observed in the higher dose of 40 mg/kg” and the “overweight (body weight)” value was “only observed in the higher dose of 40 mg/kg; also recorded: only the higher dose was found effective”. Further, in the series on WT mice (HFD, 40 mg/kg), the “insulin sensitivity (ipITT)” value is listed as “slightly improved” and the “obesity-induced glucose intolerance (ipGTT)” value is “this effect was observed”. In addition, the “lean body mass percentage” value in the series with WT mice (HFD, 40 mg/kg ip, 28 days) is “significant increase”. In the series on WT mice (HFD, chronic treatment), the “fasting blood glucose levels” value is listed as “only in Magel2^null mice”. Further, in the series on WT mice (HFD, indirect calorimetry), the carbohydrate oxidation entry is recorded as “upregulated” and the “utilization of fat (fat oxidation)” value is on record as “downregulated”. In addition, the parameters measured overall result in the series with WT mice (WT DIO mice, 40 mg/kg) is reported as “improvements in almost all parameters measured”. Moreover, the “suppressing signs of stress-induced anxiety” value in the series on rats [2] is “greater potency than CBDA”. Besides, in the series with DIO mice (40 mg/kg), the “obesity related hepatocellular injury: serum ALT” value was “reduction” and the “obesity related hepatocellular injury: serum AST” value is recorded as “reduction”. Also, the “serum HDL” value in the series with DIO mice (20 or 40 mg/kg ip, 28 days) is on record as “no effect”. In addition, in the series with DIO mice (setting [7]), the “HFD-induced hypercholesterolemia (serum cholesterol)” value is given as “reduced”, the “ratio between HDL-to-LDL” value is reported as “increased” and the “serum LDL” value is reported as “reduced”. Also, in the series with DIO mice (HFD), the ALP levels result is reported as “No major changes”; the “HFD-induced hepatic steatosis (hepatic triglyceride and cholesterol levels, fat vacuoles in the liver)” value is reported as “attenuated”. Also, the anti-depressant effect result with rat models is listed as “potent anti-depressant effect”. Also, in the series with Magel2^null mice [3] (HFD), the “food intake and hyperphagia” value was “inhibit; also recorded: significantly reduced”; the reduced ambulatory activity entry is given as “restored”. In the series with Magel2^null mice [3] (setting [6]), the increased adiposity result is “reduced by CBDA-ME in both doses” and the “overweight (body weight)” value is reported as “reduced by CBDA-ME in both doses; also recorded: significantly reduced; also recorded: effectively reduced”. The “insulin sensitivity (ipITT)” value in the series on Magel2^null mice [3] (HFD, 40 mg/kg) is on record as “slightly improved”. In the series on Magel2^null mice [3] (HFD, 20 or 40 mg/kg), the “obesity-induced glucose intolerance (ipGTT)” value is recorded as “found effective in Magel2^null mice in both doses tested”. Also, the “fasting blood glucose levels” value with Magel2^null mice [3] (HFD, chronic treatment) is reported as “reduced”. In the series on Magel2^null mice [3] (HFD, indirect calorimetry), the carbohydrate oxidation entry is given as “downregulating” and the fat oxidation entry is recorded as “further upregulating”. Further, in the series on Magel2^null mice [4], the “change in the body weight versus WT controls and vehicle-treated Magel2^null mice” value is listed as “significantly lower”; the “fat mass versus WT control mice” value is listed as “similar”; the “lean mass versus WT control mice” value is listed as “similar”. Moreover, in the series with Magel2^null mice [4] (listed as EPM301, 20 mg/kg/day), the “fat mass versus vehicle-treated Magel2^null mice” value is recorded as “lower fat mass; also recorded: prevented”, the “lean mass versus vehicle-treated Magel2^null mice” value was “significantly higher; also recorded: increased lean mass” and the “weight gain versus vehicle-treated Magel2^null mice” value is on record as “lower; also recorded: prevented weight gain”. For the same compound, the “suppressing signs of acute and anticipatory nausea” value in the series on rats [5] is “greater potency than CBDA”.
